{
  "source": "ChEMBL document CHEMBL5465560",
  "about": "“Selectivity Literature for EUbOPEN Chemogenomic Library” (2024)",
  "details_in_all_cases": "at 1 µM",
  "key": {"[1]": {"system": "T1, Receptor-type tyrosine-protein kinase FLT3 (Homo sapiens), P36888 [D835V]", "T1 sequence (whole entry)": "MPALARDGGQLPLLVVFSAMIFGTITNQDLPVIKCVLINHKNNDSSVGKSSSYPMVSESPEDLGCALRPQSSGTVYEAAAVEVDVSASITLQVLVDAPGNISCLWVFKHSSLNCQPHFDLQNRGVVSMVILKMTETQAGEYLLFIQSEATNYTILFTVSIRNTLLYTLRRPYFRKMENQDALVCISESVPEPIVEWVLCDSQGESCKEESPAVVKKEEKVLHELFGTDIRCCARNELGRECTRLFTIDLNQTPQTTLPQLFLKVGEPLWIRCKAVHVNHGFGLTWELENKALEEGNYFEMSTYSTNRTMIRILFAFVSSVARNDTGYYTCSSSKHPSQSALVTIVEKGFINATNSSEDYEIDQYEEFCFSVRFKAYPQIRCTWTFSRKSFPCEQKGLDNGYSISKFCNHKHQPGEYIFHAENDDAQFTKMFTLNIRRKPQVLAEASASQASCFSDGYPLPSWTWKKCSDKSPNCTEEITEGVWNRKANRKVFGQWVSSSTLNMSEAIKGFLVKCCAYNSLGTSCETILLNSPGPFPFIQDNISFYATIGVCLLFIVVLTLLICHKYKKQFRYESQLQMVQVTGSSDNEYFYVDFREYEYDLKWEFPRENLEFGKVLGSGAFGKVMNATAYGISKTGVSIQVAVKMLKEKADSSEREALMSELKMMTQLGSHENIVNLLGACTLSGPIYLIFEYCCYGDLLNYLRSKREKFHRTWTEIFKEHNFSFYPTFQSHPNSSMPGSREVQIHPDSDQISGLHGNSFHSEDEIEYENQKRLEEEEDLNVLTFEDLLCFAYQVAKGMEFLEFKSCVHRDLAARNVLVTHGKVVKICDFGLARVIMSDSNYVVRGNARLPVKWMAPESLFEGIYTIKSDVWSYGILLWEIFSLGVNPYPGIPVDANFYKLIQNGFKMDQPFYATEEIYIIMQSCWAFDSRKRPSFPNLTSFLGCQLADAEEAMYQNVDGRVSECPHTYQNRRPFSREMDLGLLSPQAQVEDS", "assay": "(§1) Selectivity interaction (KinomeScan (DiscoverX)) EUB0001049a FLT3"}, "[2]": {"system": "T2, Receptor-type tyrosine-protein kinase FLT3 (Homo sapiens), P36888 [D835Y]", "T2 sequence (whole entry)": "T1 sequence (whole entry) with V835Y", "assay": "as §1"}, "[3]": {"biological_target": "Receptor-type tyrosine-protein kinase FLT3 (Homo sapiens) (UniProt P36888)", "assay": "as §1"}, "[4]": {"system": "T3, Receptor-type tyrosine-protein kinase FLT3 (Homo sapiens), P36888 [N841I]", "T3 sequence (whole entry)": "T1 sequence (whole entry) with V835D, N841I", "assay": "as §1"}},
  "note": "Positions count from the first letter of the chain named.",
  "data": [
    {"compound": "COc1cc(Nc2nc(C)cc(-c3cnn4nc(OC)ccc34)n2)cc(C(F)(F)F)c1", "values": [
      {"measurement": "% of control", "setting": "[1]", "result": 86, "unit": "%"},
      {"measurement": "% of control", "setting": "[2]", "result": 79, "unit": "%"},
      {"measurement": "% of control", "setting": "[3]", "result": 100, "unit": "%"},
      {"measurement": "% of control", "setting": "[4]", "result": 100, "unit": "%"}
    ]}
  ]
}
